The values that follow are results of earlier work, collected in patent US20110282046A1, “PROCESS FOR PREPARATION OF CIS-NUCLEOSIDE DERIVATIVE” (priority 2009, published 2011).

The structures appear in SMILES notation. Where two headings read alike, the source gives them in different places.

For the data set the following is noted: for volume of water in which 1 g dissolves: Merck Index Entry no. 8869.

For `O=C(O)CCC(=O)O` [Succinic acid], the “volume of water in which 1 g dissolves” value (boiling water) is 1 mL and the “volume of water in which 1 g dissolves” value (cold water) is 13 mL.
As to `O=C(O)c1ccccc1O` [salicylic acid], the solubility in water (water, Merck Index Entry no. 8332) was 0.20 g in 100 ml water.
